Test systems include A498 renal; CCRF-CEM leukemia; HS 578T breast; HT29 colon; NCI/ADR-RES ovarian; OVCAR-3 ovarian; OVCAR-5 ovarian; PC-3 prostate; RPMI-8226 leukemia; UACC-257 melanoma.
Common to all, as to assay: inhibition of tumour cell growth, NCI panel, 48 h

Consider 8 compounds from PubChem BioAssay (NCI).

“And” between values parts separate entries of the source, which are not always exact repeats. Equal entries are not always repeated.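 A five-concentration, 48-hour dose response in 96-well plates underlies each endpoint, interpolated linearly between surrounding concentrations. GI50 marks 50% less growth. TGI denotes the concentration required for complete inhibition of growth.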

As for `CCN(CC)c1ccc2nc3c4ccccc4c(=O)cc-3n(-c3ccccc3)c2c1`, the GI50 in the assay with A498 renal was 0.653 µM; with CCRF-CEM leukemia, 2.33 µM; with HS 578T breast it was 2.37 µM; in the assay with HT29 colon it was 0.902 µM; in the assay with NCI/ADR-RES ovarian, 2.34 µM; with OVCAR-3 ovarian, 1.16 µM. Moreover, the GI50 in the assay on OVCAR-5 ovarian was 2.92 µM; in the assay with PC-3 prostate, 1.9 µM; in the assay on RPMI-8226 leukemia, 0.49 µM; with UACC-257 melanoma, 1.12 µM. Further, the TGI in the assay with A498 renal came to 4.59 µM; in the assay on CCRF-CEM leukemia it was 7.72 µM; with HS 578T breast, 7.24 µM; with HT29 colon, 8.42 µM; with NCI/ADR-RES ovarian it was 7.86 µM; in the assay on OVCAR-3 ovarian, 3.85 µM. Moreover, the TGI is > 100 µM with OVCAR-5 ovarian, 7.58 µM in the assay on PC-3 prostate, 2.58 µM with RPMI-8226 leukemia and 2.9 µM with UACC-257 melanoma.
For `CC(C)(C)NC(=O)[C@H]1CC[C@H]2[C@@H]3CC[C@H]4NC(=O)C=C[C@]4(C)[C@H]3CC[C@]12C`, the GI50 was 54.2 µM in the assay on A498 renal; 84.2 µM and > 100 µM in the assay with CCRF-CEM leukemia; > 100 µM in the assay with HS 578T breast; 44.9 µM and 69.6 µM with HT29 colon; > 100 µM with NCI/ADR-RES ovarian; > 100 µM in the assay with OVCAR-3 ovarian. For the same compound, the GI50 with OVCAR-5 ovarian was > 100 µM; with PC-3 prostate it was 61 µM and > 100 µM; in the assay with RPMI-8226 leukemia, 42.8 µM and 67.2 µM; in the assay on UACC-257 melanoma, 48.3 µM and > 100 µM. Moreover, the TGI with A498 renal, in the assay on CCRF-CEM leukemia, in the assay with HS 578T breast, in the assay with HT29 colon, in the assay on NCI/ADR-RES ovarian and in the assay with OVCAR-3 ovarian was > 100 µM throughout. Besides, the TGI in the assay with OVCAR-5 ovarian, in the assay on PC-3 prostate, in the assay with RPMI-8226 leukemia and in the assay with UACC-257 melanoma was > 100 µM each time.
`CCCCCC[C@@H](C)Nc1nc2ccccc2c2occc12`: the GI50 in the assay on A498 renal was 18.6 µM; with CCRF-CEM leukemia, 12.2 µM; in the assay on HS 578T breast, 16.5 µM; with HT29 colon, 14.5 µM; in the assay with NCI/ADR-RES ovarian it was 10.7 µM; in the assay on OVCAR-3 ovarian, 13.5 µM. The GI50 is 14 µM in the assay on OVCAR-5 ovarian, 22.9 µM with PC-3 prostate, 1.47 µM with RPMI-8226 leukemia and 4.67 µM in the assay with UACC-257 melanoma. The TGI came out at 35.1 µM in the assay on A498 renal; 39.2 µM with CCRF-CEM leukemia; 40.5 µM in the assay with HS 578T breast; 43.5 µM in the assay on HT29 colon; 22.6 µM in the assay with NCI/ADR-RES ovarian; 38.2 µM in the assay with OVCAR-3 ovarian. In addition, the TGI in the assay with OVCAR-5 ovarian was 27.4 µM; in the assay on PC-3 prostate it was 71.6 µM; in the assay on RPMI-8226 leukemia, > 100 µM; with UACC-257 melanoma it was 24 µM.
Turning to `Cc1c(-c2ccc(O)cc2)oc(=O)c2ccc(O)cc12`, the GI50 in the assay on A498 renal is 42.8 µM; with CCRF-CEM leukemia, 32.6 µM; in the assay on HS 578T breast, 43.5 µM; with HT29 colon, 73.3 µM; in the assay on NCI/ADR-RES ovarian, 49.7 µM; in the assay with OVCAR-3 ovarian, 51.5 µM. Also, the GI50 in the assay on OVCAR-5 ovarian was > 100 µM; in the assay on PC-3 prostate, 56.4 µM; in the assay on RPMI-8226 leukemia it was 31 µM; in the assay with UACC-257 melanoma, 63.2 µM. In addition, the TGI in the assay with A498 renal is 98.1 µM; in the assay with CCRF-CEM leukemia, > 100 µM; with HS 578T breast it was > 100 µM; with HT29 colon it was > 100 µM; in the assay on NCI/ADR-RES ovarian, > 100 µM; with OVCAR-3 ovarian, > 100 µM. For the same compound, the TGI in the assay on OVCAR-5 ovarian, in the assay on PC-3 prostate, in the assay with RPMI-8226 leukemia and with UACC-257 melanoma was > 100 µM each time.
For `NC1=NC(=O)/C(=C/c2ccc3ncccc3c2)S1`, the GI50 in the assay on A498 renal is > 17.3 µM; in the assay on CCRF-CEM leukemia it was > 25 µM; in the assay on HS 578T breast, > 25 µM; in the assay with HT29 colon, > 25 µM; with NCI/ADR-RES ovarian, > 25 µM; in the assay on OVCAR-3 ovarian it was > 25 µM. Further, the GI50 in the assay on OVCAR-5 ovarian, with PC-3 prostate, with RPMI-8226 leukemia and with UACC-257 melanoma was > 25 µM throughout. For the same compound, the TGI in the assay on A498 renal, with CCRF-CEM leukemia, with HS 578T breast, in the assay with HT29 colon, with NCI/ADR-RES ovarian and in the assay on OVCAR-3 ovarian was > 25 µM each time. The TGI in the assay on OVCAR-5 ovarian, with PC-3 prostate, with RPMI-8226 leukemia and in the assay with UACC-257 melanoma was > 25 µM each time.
As for `Cc1ccc(Cl)cc1NC(=O)c1cc2ccccc2cc1O`, the GI50 is 0.369 µM in the assay with A498 renal; 0.733 µM in the assay on CCRF-CEM leukemia; 0.304 µM in the assay with HS 578T breast; 3.37 µM in the assay with HT29 colon; 0.266 µM with NCI/ADR-RES ovarian; 0.313 µM in the assay with OVCAR-3 ovarian. The GI50 with OVCAR-5 ovarian was 0.992 µM; in the assay on PC-3 prostate, 0.289 µM; in the assay on RPMI-8226 leukemia, 0.106 µM; in the assay with UACC-257 melanoma, 0.277 µM. Further, the TGI in the assay on A498 renal was 1.04 µM; in the assay on CCRF-CEM leukemia, 2.84 µM; with HS 578T breast it was 1.96 µM; in the assay with HT29 colon, 14.2 µM; in the assay on NCI/ADR-RES ovarian, 1.27 µM; in the assay with OVCAR-3 ovarian, 1.02 µM. For the same compound, the TGI with OVCAR-5 ovarian was found to be 10.7 µM; in the assay on RPMI-8226 leukemia it was 0.354 µM; with UACC-257 melanoma, 0.909 µM.
With `C(=Nc1cnc2ccccc2c1)c1ccc2ccccc2n1`, the TGI in the assay with A498 renal, in the assay on CCRF-CEM leukemia, in the assay with HS 578T breast, in the assay on HT29 colon, in the assay on NCI/ADR-RES ovarian and with OVCAR-3 ovarian was > 100 µM throughout. Further, the TGI in the assay on OVCAR-5 ovarian, with PC-3 prostate, with RPMI-8226 leukemia and in the assay with UACC-257 melanoma was > 100 µM each time.
As for `Nc1nnnc2nc[nH]c12`, the GI50 in the assay on A498 renal is 1.87 µM; in the assay with CCRF-CEM leukemia, 0.72 µM; in the assay with HS 578T breast it was 3.51 µM; in the assay with HT29 colon, 3.79 µM; in the assay on NCI/ADR-RES ovarian, 0.742 µM; with OVCAR-3 ovarian, 2.53 µM. Further, the GI50 with OVCAR-5 ovarian was 0.623 µM; with PC-3 prostate, 2.42 µM; in the assay with RPMI-8226 leukemia, 0.245 µM; in the assay with UACC-257 melanoma, 0.729 µM. Also, the TGI with A498 renal was 15.3 µM; in the assay on CCRF-CEM leukemia, > 100 µM; in the assay on HS 578T breast, > 65.5 µM; in the assay with HT29 colon it was > 100 µM; in the assay on NCI/ADR-RES ovarian, > 26 µM; in the assay with OVCAR-3 ovarian it was > 100 µM. The TGI is > 100 µM in the assay with OVCAR-5 ovarian, > 100 µM in the assay with PC-3 prostate, > 85.8 µM with RPMI-8226 leukemia and 14 µM in the assay with UACC-257 melanoma.
